The record followed here is ChEMBL document CHEMBL1127385, “Synthesis and diuretic activity of alkyl- and arylguanidine analogs of N,N'-dicyclohexyl-4-morpholinecarboxamidine in rats and dogs” (J Med Chem, 1994).

The structures appear in SMILES notation.

In data set [1] the test system is Rattus norvegicus. Nature of the data set: Ratio of Total electrolytic excretion of sodium and potassium in urine of rats after peroral administration of 74.8 uM/Kg of drug. It is filed as ADME, organism-based. Particulars: in vivo, po.
For data set [2], the system named is Rattus norvegicus. Briefly: Total electrolytic excretion of chlorine in urine of rats after peroral administration of 74.8 uM/Kg of drug. It is filed as ADME, organism-based. Particulars: in vivo, po.
The test system of data set [3] is Rattus norvegicus. Briefly: Tested for the diuretic activity by measuring the urinary volume after peroral administering 74.8 uM/Kg of drug in rats. Particulars: in vivo, po. It is filed as ADME, organism-based, Urine.
The test system of data set [4] is Rattus norvegicus. Briefly: Total electrolytic excretion of sodium in urine of rats after peroral administration of 249 uM/Kg of drug. It is filed as ADME, organism-based. The following applies: in vivo, po.
The test system of data set [5] is Canis familiaris. Nature of the data set: Total electrolytic excretion of sodium in urine of dogs after intravenous administration of 2.49 uM/Kg of drug. It is filed as ADME, organism-based, Canis lupus familiaris. Particulars: dog, in vivo.
The test system of data set [6] is Rattus norvegicus. Nature of the data set: Total electrolytic excretion of potassium in urine of rats after peroral administration of 24.9 uM/Kg of drug. The following applies: in vivo, po. Type of data set: ADME, organism-based.
The subject of data set [7] is Rattus norvegicus. Nature of the data set: Ratio of Total electrolytic excretion of sodium and potassium in urine of rats after peroral administration of 249 uM/Kg of drug. It is filed as ADME, organism-based. The following applies: in vivo, po.
Data set [8] deals with Rattus norvegicus. Nature of the data set: Total electrolytic excretion of chlorine in urine of rats after peroral administration of 249 uM/Kg of drug. It is filed as ADME, organism-based. The following applies: in vivo, po.
The subject of data set [9] is Rattus norvegicus. Briefly: Total electrolytic excretion of sodium in urine of rats after peroral administration of 24.9 uM/Kg of drug. It is filed as ADME, organism-based. Particulars: in vivo, po.
The test system of data set [10] is Rattus norvegicus. Nature of the data set: Total electrolytic excretion of potassium in urine of rats after peroral administration of 249 uM/Kg of drug. It is filed as ADME, organism-based. The following applies: in vivo, po.
Data set [11] relates to Rattus norvegicus. Briefly: Tested for the diuretic activity by measuring the urinary volume after peroral administering 24.9 uM/Kg of drug in rats. It is filed as ADME, organism-based, Urine. Particulars: in vivo, po.
The test system of data set [12] is Rattus norvegicus. Nature of the data set: Ratio of Total electrolytic excretion of sodium and potassium in urine of rats after intravenous administration of 2.49 uM/Kg of drug. Type of data set: ADME, organism-based. Particulars: in vivo.
Data set [13] deals with Rattus norvegicus. Nature of the data set: Ratio of Total electrolytic excretion of sodium and potassium in urine of rats after peroral administration of 24.9 uM/Kg of drug. Type of data set: ADME, organism-based. Particulars: in vivo, po.
Data set [14] has as its system Canis familiaris. Briefly: Total electrolytic excretion of potassium in urine of dogs after intravenous administration of 2.49 uM/Kg of drug. It is filed as ADME, organism-based, Canis lupus familiaris. Particulars: dog, in vivo.
For data set [15], the system named is Rattus norvegicus. Briefly: Total electrolytic excretion of potassium in urine of rats after peroral administration of 74.8 uM/Kg of drug. It is filed as ADME, organism-based. The following applies: in vivo, po.
The subject of data set [16] is Rattus norvegicus. Briefly: Tested for the diuretic activity by measuring the urinary volume after peroral administering 249 uM/Kg of drug in rats. It is filed as ADME, organism-based, Urine. The following applies: in vivo, po.
In data set [17] the test system is Canis familiaris. Briefly: Tested for the diuretic activity by measuring the urinary volume after intravenous administering 2.49 uM/Kg of drug in dogs. The following applies: dog, in vivo. Type of data set: ADME, organism-based, Canis lupus familiaris, Urine.
Data set [18] deals with Rattus norvegicus. Nature of the data set: Total electrolytic excretion of sodium in urine of rats after peroral administration of 74.8 uM/Kg of drug. Particulars: in vivo, po. Type of data set: ADME, organism-based.
In data set [19] the test system is Rattus norvegicus. Nature of the data set: Total electrolytic excretion of chlorine in urine of rats after peroral administration of 24.9 uM/Kg of drug. Particulars: in vivo, po. It is filed as ADME, organism-based.
For data set [20], the system named is Canis familiaris. Nature of the data set: Total electrolytic excretion of chlorine in urine of dogs after intravenous administration of 2.49 uM/Kg of drug. It is filed as ADME, organism-based, Canis lupus familiaris. The following applies: dog, in vivo.
Data set [21] concerns Rattus norvegicus. Briefly: Tested for the diuretic activity by measuring the urinary volume after peroral administering 195 uM/Kg of drug in rats. Particulars: in vivo, po. Type of data set: ADME, organism-based, Urine.
In data set [22] the test system is Rattus norvegicus. Briefly: Total electrolytic excretion of chlorine in urine of rats after peroral administration of 195 uM/Kg of drug. Type of data set: ADME, organism-based. The following applies: in vivo, po.
For data set [23], the system named is Rattus norvegicus. Nature of the data set: Total electrolytic excretion of sodium in urine of rats after peroral administration of 195 uM/Kg of drug. Type of data set: ADME, organism-based. Particulars: in vivo, po.
Data set [24] has as its system Rattus norvegicus. Briefly: Total electrolytic excretion of chlorine in urine of rats after peroral administration of 58.4 uM/Kg of drug. It is filed as ADME, organism-based. The following applies: in vivo, po.
Data set [25] concerns Rattus norvegicus. Nature of the data set: Ratio of Total electrolytic excretion of sodium and potassium in urine of rats after peroral administration of 58.4 uM/Kg of drug. It is filed as ADME, organism-based. The following applies: in vivo, po.
For data set [26], the system named is Rattus norvegicus. Nature of the data set: Tested for the diuretic activity by measuring the urinary volume after peroral administering 19.5 uM/Kg of drug in rats. Type of data set: ADME, organism-based, Urine. Particulars: in vivo, po.
In data set [27] the test system is Rattus norvegicus. Nature of the data set: Total electrolytic excretion of chlorine in urine of rats after peroral administration of 19.5 uM/Kg of drug. Type of data set: ADME, organism-based. Particulars: in vivo, po.
Data set [28] deals with Rattus norvegicus. Nature of the data set: Ratio of Total electrolytic excretion of sodium and potassium in urine of rats after intravenous administration of 5.84 uM/Kg of drug. The following applies: in vivo. It is filed as ADME, organism-based.
Data set [29] has as its system Rattus norvegicus. Nature of the data set: Tested for the diuretic activity by measuring the urinary volume after peroral administering 58.4 uM/Kg of drug in rats. Particulars: in vivo, po. Type of data set: ADME, organism-based, Urine.
For data set [30], the system named is Rattus norvegicus. Nature of the data set: Total electrolytic excretion of potassium in urine of rats after peroral administration of 58.4 uM/Kg of drug. Particulars: in vivo, po. It is filed as ADME, organism-based.
Data set [31] concerns Rattus norvegicus. Briefly: Total electrolytic excretion of potassium in urine of rats after peroral administration of 19.5 uM/Kg of drug. Type of data set: ADME, organism-based. The following applies: in vivo, po.
In data set [32] the test system is Rattus norvegicus. Nature of the data set: Ratio of Total electrolytic excretion of sodium and potassium in urine of rats after intravenous administration of 19.5 uM/Kg of drug. Type of data set: ADME, organism-based. The following applies: in vivo.
In data set [33] the test system is Rattus norvegicus. Briefly: Ratio of Total electrolytic excretion of sodium and potassium in urine of rats after peroral administration of 19.5 uM/Kg of drug. It is filed as ADME, organism-based. The following applies: in vivo, po.
Data set [34] concerns Rattus norvegicus. Nature of the data set: Ratio of Total electrolytic excretion of sodium and potassium in urine of rats after peroral administration of 195 uM/Kg of drug. It is filed as ADME, organism-based. Particulars: in vivo, po.
Data set [35] relates to Rattus norvegicus. Briefly: Total electrolytic excretion of sodium in urine of rats after peroral administration of 58.4 uM/Kg of drug. Type of data set: ADME, organism-based. The following applies: in vivo, po.
In data set [36] the test system is Rattus norvegicus. Nature of the data set: Total electrolytic excretion of sodium in urine of rats after peroral administration of 19.5 uM/Kg of drug. It is filed as ADME, organism-based. The following applies: in vivo, po.
For data set [37], the system named is Rattus norvegicus. Briefly: Total electrolytic excretion of potassium in urine of rats after peroral administration of 195 uM/Kg of drug. It is filed as ADME, organism-based. The following applies: in vivo, po.

Regarding `CCOC(=O)N1CCN(/C(=N\C2CCCCC2)NC2CCCCC2)CC1`, the Ratio amounted to 4.1 in the data set on Rattus norvegicus [1], 4 with Rattus norvegicus [7], 4.8 in the data set on Rattus norvegicus [12] and 3 in the data set on Rattus norvegicus [13]. Further, the “Excretion Cl-” value in the data set on Rattus norvegicus [2] stood at 1.38 m equiv; in the data set with Rattus norvegicus [8], 1.7 m equiv; with Rattus norvegicus [19] it was 0.98 m equiv; in the data set with Canis familiaris [20], 5.4 m equiv. The V in the data set with Rattus norvegicus [3] turned out to be 8.3 mL; with Rattus norvegicus [11], 5.3 mL; with Rattus norvegicus [16], 10.8 mL; in the data set on Canis familiaris [17] it was 51 mL. Also, the “Excretion Na+” value with Rattus norvegicus [4] turned out to be 1.67 m equiv; with Canis familiaris [5], 8.3 m equiv; with Rattus norvegicus [9] it was 0.87 m equiv; with Rattus norvegicus [18] it was 1.35 m equiv. The “Excretion K+” value in the data set with Rattus norvegicus [6] is 0.29 m equiv; in the data set with Rattus norvegicus [10], 0.42 m equiv; in the data set with Canis familiaris [14] it was 2 m equiv; with Rattus norvegicus [15] it was 0.33 m equiv.
Take `C1CN(/C(=N\C23CC4CC(CC(C4)C2)C3)NC23CC4CC(CC(C4)C2)C3)CCO1`: the V with Rattus norvegicus [21] is 10.9 mL; in the data set with Rattus norvegicus [26] it was 10.1 mL; with Rattus norvegicus [29], 12.8 mL. Besides, the “Excretion Cl-” value in the data set with Rattus norvegicus [22] came out at 1.66 m equiv; with Rattus norvegicus [24], 1.97 m equiv; in the data set on Rattus norvegicus [27], 1.52 m equiv. Besides, the “Excretion Na+” value in the data set on Rattus norvegicus [23] came to 1.9 m equiv; with Rattus norvegicus [35] it was 2.04 m equiv; in the data set with Rattus norvegicus [36] it was 1.51 m equiv. Besides, the Ratio in the data set with Rattus norvegicus [25] was 7.5 [Na+]/[K+]; in the data set with Rattus norvegicus [28] it was 8 [Na+]/[K+]; with Rattus norvegicus [32] it was 6.8; in the data set with Rattus norvegicus [33], 6.6 [Na+]/[K+]; in the data set with Rattus norvegicus [34], 7.6 [Na+]/[K+]. Moreover, the “Excretion K+” value with Rattus norvegicus [30] was determined as 0.27 m equiv; with Rattus norvegicus [31] it was 0.23 m equiv; in the data set with Rattus norvegicus [37] it was 0.25 m equiv.
